Read-outs that look alike come from different tables or passages of the source.
Tests used:
[1] = test system: tumor necrosis factor-α (TNF-α); experiment: LPS-induced TNF-α production in RAW 264.7 macrophages; conditions: Mus musculus, RAW264.7, read-out: IC50 TNF-α
prostaglandin E2 (PGE2) [2] = experiment: LPS-induced PGE2 production in RAW 264.7 macrophages; format: cell-based, Mouse; conditions: for IC50: Mus musculus, RAW264.7, LPS-stimulated RAW 264.7 macrophages, mean ± SEM, three experiments
Method: (§1) Furthermore, the anti-inflammatory effects of MPT0G009 was evaluated. […] These supernatants were then assayed for PGE2, NO, and IL-6.

nitric oxide (NO) = experiment: LPS-induced nitric oxide production in RAW 264.7 macrophages; format: cell-based, Mouse; conditions: for IC50: Mus musculus, RAW264.7, LPS-stimulated RAW 264.7 macrophages, mean ± SEM, three experiments
Method: Nitrite concentration was determined using a dilution of sodium nitrite as a standard.
as §1

interleukin-6 (IL-6) = experiment: LPS-induced IL-6 production in RAW 264.7 macrophages; conditions: Mus musculus, RAW264.7, read-out: IC50 IL-6
prostaglandin E2 (PGE2) [3] = experiment: LPS-induced PGE2 production by RA-FLS; format: cell-based; conditions: MPT0G009 0.1, 1, 10 μM; SAHA 0.3, 3, 30 μM; LPS 25 ng/mL 24 h
Method: (§2) (FIG. 1A) Structure of MPT0G009. […] Results in (FIGS. 1B-E) and (FIG. 1G) are means±SEM's for three independent experiments, *p<0.05 and **p<0.01 compared with no added inhibitor.
as §1

[4] = test system: carrageenan-induced hind paw edema; experiment: carrageenan-induced hind paw edema; conditions: for carrageenan-induced hind paw edema: oral, 1 h before carrageenan, compound 9 25 mg/kg, SAHA 200 mg/kg, Indomethacin 5 mg/kg, measured 3 h after
Method: A 0.5% (w/v) suspension of carrageenan in normal saline was administered to male Wistar rats (7-weeks) by intradermal injection into the base of the right hind paw. […] A positive control group was included in which rats were pretreated with 5 mg/kg Indomethacin. […] The results are expressed as the mean±SEM, with n=5. *p<0.05 compared to the control group; #p<0.05 for the comparison of the indicated groups.
Animals were divided into four groups (n=5). 0.5% (w/v) suspension of carrageenan in normal saline was administered to male Wistar rats (7-weeks) by intradermal injection into the base of the right hind paw. […] A positive control group was included in which rats were pretreated with 5 mg/kg Indomethacin. Three hours after carrageenan administration, the thickness and volume of the right hind paw were measured by digital caliper and digital plethysmometer (Diagnostic & Research Instruments CO., Ltd, Taipei, Taiwan), respectively.

RAW264.7 macrophages = experiment: M-CSF/RANKL-induced osteoclast formation; format: cell-based, Mouse; conditions: 5 nM MPT0G009 or 50 nM SAHA; M-CSF/RANKL 50 ng/mL, 5 days
Method: Cells were then tartrate resistant acid phosphatase (TRAP) stained, and the numbers of TRAP-positive multinuclear cells were counted. […] Images are at ×100 magnification, and the arrows indicate differentiated osteoclasts. (FIG. 6C) RAW264.7 cells were treated as in (FIG. 6B), then incubated with a fluorescein isothiocyanate (FITC)-conjugated anti-CD51/61 antibody and analyzed by flow cytometry. (FIGS. 6D and 6E) RAW264.7 cells (1×10^5) were transfected with 1 μg of pGL4.32[luc2P/NF-κB-RE/Hygro] (FIG. 6D) or pGL4.30[luc2P/NFAT-RE/Hygro] (FIG. 6E) for 24 h and then incubated for 30 min with or without MPT0G009 (5 nM). Then RANKL (50 ng/mL) was added and incubation was continued for an additional 24 h, after which luciferase activity was determined. Results in (FIGS. 6A, 6D, and 6E) are the means±SEM's for three independent experiments. **p<0.01 compared with the indicated controls.
Bone destruction is one characteristic of RA pathogenesis, resulting in joint dysfunction. Differentiation of mouse macrophages osteoclast-like cells can be induced in the presence of M-CSF and RANKL, which has been used as a model to investigate osteoclast differentiation. […] Subsequently, multinucleate tartrate resistant acid phosphatase (TRAP)-positive cells were counted.

RA-FLS [5] = experiment: SRB anti-proliferation assay; format: cell-based; conditions: 24 or 48 h incubation
Excerpt: as §2

HIG-82 synoviocytes = experiment: SRB anti-proliferation assay; format: cell-based; conditions: 24 or 48 h incubation
Excerpt: as §2

RA-FLS [6] = experiment: cell cycle distribution by flow cytometry (propidium iodide); format: cell-based; conditions: 24 h
Excerpt: as §2

[7] = test system: inducible nitric oxide synthase (iNOS); experiment: LPS-induced iNOS protein expression, Western blot, RAW264.7; format: cell-based, Mouse; conditions: RAW264.7, 0.1-10 μM, LPS 25 ng/mL 24 h
Method: (§3) Then the cells were harvested and whole cell extracts were prepared for Western blot analysis for iNOS and COX-2. The relative protein expressions are presented as mean±SEM for four replicates. *p<0.05 compared to the LPS-treated group.

IL-6 = experiment: IL-1β-induced IL-6 production by RA-FLS; format: cell-based; conditions: MPT0G009 0.1, 1, 10 μM; SAHA 0.3, 3, 30 μM; IL-1β 10 ng/mL 24 h
Method: as §2, §1

[8] = test system: adjuvant-induced arthritis; experiment: adjuvant-induced arthritis (AIA) model; conditions: day 21, ELISA; MPT0G009 25 mg/kg, SAHA 200 mg/kg, indomethacin 1 mg/kg
Method: (FIG. 8B) Hind paw volumes in the indicated group of rats were measured using a digital plethysmometer on the indicated day after AIA induction. […] (FIG. 8D) Serum levels of interleukin (IL)-1β (left panel) and IL-6 (right panel) on day 21 as measured by enzyme-linked immunosorbent assay (ELISA). […] (FIG. 8F) The bone mineral density (BMD, in mg/mm^3) and the bone mineral content (BMC, in mg) values for the bone tissue of the tarsus were analyzed using CT Analysis Software.

cyclooxygenase-2 (COX-2) = experiment: LPS-induced COX-2 protein expression, Western blot, RAW264.7; format: cell-based, Mouse; conditions: RAW264.7, 0.1-10 μM, LPS 25 ng/mL 24 h
Method: as §3

[9] = rats, SAHA (reference 30), cited from earlier work
p21 = p21 expression by flow cytometry or western blot in RA-FLS; format: cell-based; conditions: 24 h, 1 μM MPT0G009 or 3 μM SAHA
Excerpt: as §2

HDAC3 = experiment: HDAC isoform protein levels, Western blot, RA-FLS; format: cell-based; conditions: 12 or 24 h; 1 μM MPT0G009 or 30 μM SAHA
Method: Then cells were harvested and cell lysates were prepared for Western blot analysis of the indicated proteins. (FIG. 5C) RA-FLS were incubated for 1 h with or without the proteasome inhibitor, MG132 (1 μM). […] Results shown are representative of three independent experiments.

[10] = MPT0G009 0.1, 1, 10 μM, SAHA 0.3, 3, 30 μM, LPS 25 ng/mL 24 h

## CN(C)c1cccc2c(S(=O)(=O)N3CCc4cc(C=CC(=O)NO)ccc43)cccc12 [Compound 15, 3-[1-(5-Dimethylaminonaphthalene-1-sulfonyl)-2,3-dihydro-1H-indol-5-yl]-N-hydroxyacrylamide]
[1]
  IC50: 2.11 ± 0.28 µM
Prostaglandin E2 (PGE2) [2]
  IC50: 2.7 ± 0.43 µM
Nitric oxide (NO)
  IC50: > 10 µM
interleukin-6 (IL-6)
  IC50: 0.09 µM
other
  melting point: 142 to 143 °C

## O=C(C=Cc1ccc2c(c1)CCN2S(=O)(=O)c1ccc(F)cc1)NO [Compound 11, 3-[1-(4-Fluorobenzenesulfonyl)-2,3-dihydro-1H-indol-5-yl]-N-hydroxyacrylamide]
[1]
  IC50: 1.04 ± 0.25 µM
Prostaglandin E2 (PGE2) [2]
  IC50: 1.31 ± 0.16 µM
Nitric oxide (NO)
  IC50: 4.41 ± 0.31 µM
interleukin-6 (IL-6)
  IC50: 0.03 µM
other
  melting point: 129 to 131 °C

## COc1cccc(S(=O)(=O)N2CCc3cc(C=CC(=O)NO)ccc32)c1 [Compound 8, 3-[1-(3-Methoxybenzenesulfonyl)-2,3-dihydro-1H-indol-5-yl]-N-hydroxyacrylamide]
[1]
  IC50: 1.09 ± 0.12 µM
Prostaglandin E2 (PGE2) [2]
  IC50: 1.36 ± 0.29 µM
Nitric oxide (NO)
  IC50: 7.35 ± 0.83 µM
interleukin-6 (IL-6)
  IC50: 0.02 µM
other
  melting point: 156 to 157 °C

## COc1ccc(S(=O)(=O)N2CCc3cc(C=CC(=O)NO)ccc32)cc1OC [Compound 10, 3-[1-(3,4-Dimethoxybenzenesulfonyl)-2,3-dihydro-1H-indol-5-yl]-N-hydroxyacrylamide]
[1]
  IC50: 0.62 ± 0.12 µM
Prostaglandin E2 (PGE2) [2]
  IC50: 1.9 ± 0.21 µM
Nitric oxide (NO)
  IC50: 7.31 ± 0.66 µM
interleukin-6 (IL-6)
  IC50: 0.01 µM
other
  melting point: 192 to 193 °C

## O=C(/C=C/c1ccc2c(ccn2S(=O)(=O)c2ccccc2)c1)NO [Compound 6]
[1]
  IC50: 3.73 ± 0.26 µM
Prostaglandin E2 (PGE2) [2]
  IC50: 5.13 ± 0.48 µM
Nitric oxide (NO)
  IC50: > 10 µM
interleukin-6 (IL-6)
  IC50: 0.17 µM

## O=C(C=Cc1ccc2c(c1)CCN2S(=O)(=O)c1ccc([N+](=O)[O-])cc1)NO [Compound 13, 3-[1-(4-Nitrobenzenesulfonyl)-2,3-dihydro-1H-indol-5-yl]-N-Hydroxyacrylamide]
[1]
  IC50: 1.37 ± 0.18 µM
Prostaglandin E2 (PGE2) [2]
  IC50: 1.76 ± 0.26 µM
Nitric oxide (NO)
  IC50: 3.11 ± 0.37 µM
interleukin-6 (IL-6)
  IC50: 0.02 µM
other
  melting point: 163 to 165 °C

## O=C(CCCCCCC(=O)Nc1ccccc1)NO [SAHA, Suberanilohydroxamic Acid, reference compound]
Prostaglandin E2 (PGE2) [3]
  PGE2 production by RA-FLS: inhibited
[4]; SAHA 200 mg/kg oral, 3 h after carrageenan
  paw thickness reduced compared to control: 15.7%
[4]
  carrageenan-induced hind paw edema: significantly inhibited
[4]; listed as SAHA (1)
  carrageenan-induced hind paw edema: suppress
RAW264.7 macrophages
  expression of osteoclast-specific marker CD51/61: no effect
  formation of M-CSF/RANKL-induced TRAP-positive cells: no effect
RA-FLS [5]
  proliferation of RA-FLS: concentration-dependent anti-proliferative effects
HIG-82 synoviocytes
  proliferation of HIG-82 synoviocytes: concentration-dependent anti-proliferative effects
RA-FLS [6]; MPT0G009 1-1000 nM, SAHA 3-3000 nM
  subG1 peak (cellular apoptosis): did not increase the subG1 peak
RA-FLS [6]; all concentrations of both agents
  G0/G1 phase arrest: G0/G1 phase arrest was observed
[7]
  iNOS protein expression: significantly inhibited
[7]; listed as SAHA (1)
  iNOS protein expression: concentration-dependently inhibitory effects
Prostaglandin E2 (PGE2) [2]; [10]
  PGE2 production by RAW264.7 cells: inhibited
IL-6
  IL-6 production by RA-FLS: inhibited
[8]
  serum levels of IL-1β: significant decreases
  serum levels of IL-6: significant decreases
Nitric oxide (NO); [10]
  NO production by RAW264.7 cells: inhibited
cyclooxygenase-2 (COX-2)
  COX-2 protein expression: significantly inhibited
cyclooxygenase-2 (COX-2); listed as SAHA (1)
  COX-2 protein expression: concentration-dependently inhibitory effects
[9]; iv 2 mg/kg
  AUC(0-inf): 278 ng·h/mL
  CL: 134 mL/min/kg
  T1/2: 38.4 min
  Vd: 3.92 L/kg
[9]; po 5 mg/kg
  AUC(0-inf): 49.40 ng·h/mL
  Cmax: 83.90 ng/mL
  F: 6.9%
  T1/2: 67.8 min
  Tmax: 10.2 min
p21
  expression of p21: significantly increased
HDAC3
  levels of HDAC3 in RA-FLS: no effect

## COc1ccc2c(c1)c(CC(=O)O)c(C)n2C(=O)c1ccc(Cl)cc1 [Indomethacin, reference compound]
[4]
  carrageenan-induced hind paw edema: suppressed
[8]
  serum levels of IL-1β: significant decreases
  serum levels of IL-6: significant decreases

## Nc1ccc(S(=O)(=O)N2CCc3cc(C=CC(=O)NO)ccc32)cc1 [Compound 14, 3-[1-(4-Aminobenzenesulfonyl)-2,3-dihydro-1H-indol-5-yl]-N-hydroxyacrylamide]
[1]
  IC50: > 10 µM
Prostaglandin E2 (PGE2) [2]
  IC50: > 10 µM
Nitric oxide (NO)
  IC50: > 10 µM
interleukin-6 (IL-6)
  IC50: > 10 µM
other
  melting point: 97 to 99 °C

## O=C(C=Cc1ccc2c(c1)CCN2S(=O)(=O)c1ccccc1)NO [Compound 7, 3-(1-Benzenesulfonyl-2,3-dihydro-1H-indol-5-yl)-N-hydroxyacrylamide]
[1]
  IC50: 0.99 ± 0.07 µM
Prostaglandin E2 (PGE2) [2]
  IC50: 1.68 ± 0.27 µM
Nitric oxide (NO)
  IC50: 4.64 ± 0.12 µM
interleukin-6 (IL-6)
  IC50: 0.02 µM

## O=C(C=Cc1ccc2c(c1)CCN2S(=O)(=O)c1ccc(Cl)cc1)NO [Compound 12, 3-[1-(4-Chlorobenzenesulfonyl)-2,3-dihydro-1H-indol-5-yl]-N-hydroxyacrylamide]
[1]
  IC50: 1.01 ± 0.11 µM
Prostaglandin E2 (PGE2) [2]
  IC50: 1.04 ± 0.15 µM
Nitric oxide (NO)
  IC50: 5.49 ± 0.48 µM
interleukin-6 (IL-6)
  IC50: 0.02 µM
other
  melting point: 159 to 160 °C
